Values after ≈ are worked out from the molar mass of the structure shown. Read-outs that look alike come from different tables or passages of the source.
What was measured:
P. berghei ANKA strain = experiment: Divided 3x3 mg/kg and 3x1 mg/kg po doses in infected mice; assay type: in vivo, Plasmodium berghei; conditions: for Activity (%): percent reduction of parasitemia vs control on day 4
Method: Moro NMRI male mice (Fu Albino specific pathogen free) weighing 18±2 g were infected intravenously (i.v.) with 2×10^7 P. berghei ANKA strain-infected erythrocytes from donor mice on day 0 of the experiment. From donor mice with circa 30% parasitemia, heparinized blood was taken and diluted in physiological saline to 10^8 parasitized erythrocytes per ml. An aliquot (0.2 ml) of this suspension was injected i.v. into experimental and control groups of mice. […] Throughout the experiments, mice were kept in groups of three or five animals in Makrolon type II cages in an air-conditioned animal room at 22 to 23° C.
They were administered per os (p.o.) in a total volume of 0.01 ml per gram of mouse. The activity of the compound was determined by a variety of methods outlined in subsequent sections. Survival time was also recorded, and survival to day 30 post-infection was considered to be a cure.
The second experiment consists of administration of divided 3×3 mg/kg and 3×1 mg/kg po doses administered on days 1, 2, and 3 post-infection. On day 4 post-infection, blood smears of all animals were prepared and stained with Giemsa. […] Compounds were administered orally in the SSV vehicle.

[1] = tested on: Schistosoma mansoni adult worms (49-day-old); experiment: Effect on adult schistosomes (49-day-old) in infected mice; assay type: in vivo; conditions: single 400 mg/kg per os; for % reduction of adult worms growth at day 49 after per os application of 400 mg/kg, TWR (%): 49-day-old adults, total worm reduction rate; for Adult worms day 49, per os 400 mg/kg, DEAD WORM (%): percentage of dead worm in the liver
Method: Mice were infected with 100 Schistosoma mansoni cercariae on day 49 post-treatment. Each group was treated per os with OZ compounds at single doses of 200, 400, and 600 mg/kg. Untreated mice served as the control. All groups were killed 4 weeks after treatment and the liver and intestine were removed and separated. The liver and intestine were compressed and alive male and female worms could be seen and counted.

[2] = tested on: chloroquine-sensitive NF54 strain of P. falciparum; experiment: In vitro antimalarial semiautomated microdilution assay ([3H]-hypoxanthine incorporation), NF54 strain; assay type: cell-based, Plasmodium falciparum; conditions: for IC50: Plasmodium falciparum
How it was run: (§1)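 IC50 values come from Logit regression of [3H]-hypoxanthine uptake data. Parasites were intraerythrocytic P. falciparum forms taken from asynchronous stock cultures and tested by semiautomated microdilution.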

[3] = tested on: chloroquine-resistant K1 strain of P. falciparum; experiment: In vitro antimalarial semiautomated microdilution assay ([3H]-hypoxanthine incorporation), K1 strain; assay type: cell-based, Plasmodium falciparum; conditions: for IC50: Plasmodium falciparum
How it was run: as §1

[4] = tested on: ANKA strain of P. berghei; experiment: Single dose STI in vivo screen in infected mice; set-up: species or system Plasmodium berghei; conditions: for Survival (days) 10 mg/kg po: single 10 mg/kg po in 3% ethanol and 7% Tween 80; for Survival (days) 10 mg/kg po / Survival (days) 10 mg/kg SSV po / Survival (days) 10 mg/kg sc: untreated 6-7 days; for Activity (%) 10 mg/kg po: single 10 mg/kg po in 3% ethanol and 7% Tween 80 on day 1 post-infection; for Activity (%) 10 mg/kg po / Activity (%) 10 mg/kg SSV po / Activity (%) 10 mg/kg sc: percent reduction in parasitemia on day 3; for Survival (days) 10 mg/kg SSV po: single 10 mg/kg po in SSV; for Activity (%) 10 mg/kg SSV po: single 10 mg/kg po in standard suspending vehicle (SSV) on day 1 post-infection; for Survival (days) 10 mg/kg sc: single 10 mg/kg sc in 3% ethanol and 7% Tween 80; for Activity (%) 10 mg/kg sc: single 10 mg/kg sc in 3% ethanol and 7% Tween 80 on day 1 post-infection
[5] = 3 × 1 mg/kg p.o. SSV on days 1, 2, 3 post-infection
[6] = 3 × 3 mg/kg p.o. SSV on days 1, 2, 3 post-infection
[7] = NF54, 72 h, read-out: IC50 (ng/ml) NF54, chloroquine-sensitive NF54 strain, 72 h incubation
[8] = K1, 72 h, read-out: IC50 (ng/ml) K1, chloroquine-resistant K1 strain, 72 h incubation
[9] = chloroquine-sensitive NF54 strain, 72 h incubation, read-out: IC50 (ng/ml) NF54
[10] = chloroquine-resistant K1 strain, 72 h incubation, read-out: IC50 (ng/ml) K1

Compound | Survival (P. berghei ANKA strain; [5]) | Activity (%) (P. berghei ANKA strain; [5]) | Survival (P. berghei ANKA strain; [6]) | Activity (%) (P. berghei ANKA strain; [6]) | Adult worms day 49, per os 400 mg/kg, DEAD WORM (%) [1] | Survival (days) 10 mg/kg po [4] | Survival (days) 10 mg/kg SSV po [4] | other results
CS(=O)(=O)O.NCCOc1ccc(C2CCC3(CC2)OOC2(O3)C3CC4CC(C3)CC2C4)cc1 (stereo not shown) [compound 323] | 14.4 days | 66% | 14.4 days | 99.95% | – | – | – | –
C1=C(c2ccccc2)CCC2(C1)OOC1(O2)C2CC3CC(C2)CC1C3 (stereo not shown) [OZ226, Adamantane-2-spiro-3′-8′-phenyl-1′,2′,4′-trioxaspiro[4.5]dec-7′-ene] | – | – | – | – | 0% | 5.0 days | 5.3 days | % reduction of adult worms growth at day 49 after per os application of 400 mg/kg, TWR (%) [1]: 52%; IC50 [2, 7]: 4 ng/mL (≈ 0.0118 µM); IC50 [3, 8]: 4 ng/mL (≈ 0.0118 µM); Activity (%) 10 mg/kg po [4]: 0%; Activity (%) 10 mg/kg SSV po [4]: 0%; Survival (days) 10 mg/kg sc [4]: 11.0 days; Activity (%) 10 mg/kg sc [4]: 99.92%
O=c1ccn(CC2CCC3(CC2)OOC2(O3)C3CC4CC(C3)CC2C4)cc1 (stereo not shown) [compound 302] | 13.4 days | 87% | 13.4 days | 99.51% | – | – | – | –
CCOC(=O)CNCC1CCC2(CC1)OOC1(O2)C2CC3CC(C2)CC1C3.CS(=O)(=O)O (stereo not shown) [compound 290] | 6.8 days | 14% | 10.6 days | 93% | – | – | – | –
NC(=O)OC1CCC2(CC1)OOC1(O2)C2CC3CC(C2)CC1C3 (stereo not shown) [OZ107] | – | – | – | – | 4% | 6.3 days | 6.3 days | % reduction of adult worms growth at day 49 after per os application of 400 mg/kg, TWR (%) [1]: 26%; IC50 [2, 7]: 0.3 ng/mL (≈ 0.000928 µM); IC50 [3, 8]: 1 ng/mL (≈ 0.00309 µM); Activity (%) 10 mg/kg po [4]: 70%; Activity (%) 10 mg/kg SSV po [4]: 32%; Survival (days) 10 mg/kg sc [4]: 8.0 days; Activity (%) 10 mg/kg sc [4]: 99.74%
NC(=O)c1cn(CC2CCC3(CC2)OOC2(O3)C3CC4CC(C3)CC2C4)cn1 (stereo not shown) [compound 320] | 8.6 days | 50% | 9.6 days | 96% | – | – | – | –
O=C(OC[C@H]1CC[C@]2(CC1)OOC1(O2)C2CC3CC(C2)CC1C3)N1CCN(c2ccccc2)CC1 (stereo partly drawn) [OZ148, cis-Adamantane-2-spiro-3′-1′,2′,4′-trioxaspiro[4.5]decane-8′-methyl 4-phenylpiperazine-1-carboxylate] | – | – | – | – | 0% | 7.3 days | 7.7 days | % reduction of adult worms growth at day 49 after per os application of 400 mg/kg, TWR (%) [1]: 25%; IC50 [2, 9]: 16 ng/mL (≈ 0.0332 µM); IC50 [3, 10]: 17 ng/mL (≈ 0.0352 µM); Activity (%) 10 mg/kg po [4]: 38%; Activity (%) 10 mg/kg SSV po [4]: 58%; Survival (days) 10 mg/kg sc [4]: 6.3 days; Activity (%) 10 mg/kg sc [4]: 21%
NC(=O)CNC(=O)CC1CCC2(CC1)OOC1(O2)C2CC3CC(C2)CC1C3 (stereo not shown) [compound 306] | 11 days | 85% | 7.6 days | 99.75% | – | – | – | –
O=C([C@H]1CC[C@]2(CC1)OOC1(O2)C2CC3CC(C2)CC1C3)N1CCN(c2ccccc2)CC1 (stereo partly shown) [OZ140] | – | – | – | – | 3% | 6.0 days | 6.3 days | % reduction of adult worms growth at day 49 after per os application of 400 mg/kg, TWR (%) [1]: 0%; IC50 [2, 7]: 8.2 ng/mL (≈ 0.0181 µM); IC50 [3, 8]: 5.9 ng/mL (≈ 0.013 µM); Activity (%) 10 mg/kg po [4]: 0%; Activity (%) 10 mg/kg SSV po [4]: 8%; Survival (days) 10 mg/kg sc [4]: 7.0 days; Activity (%) 10 mg/kg sc [4]: 60%
OC12CC3CC(C1)C1(OOC4(CCC5(CC4)OCCO5)O1)C(C3)C2 (stereo not shown) [OZ153, 5-Hydroxyadamantane-2-spiro-3′-1′,2′,4′,9′,12′-pentaoxadispiro[4.2.4.2]tetradecane] | – | – | – | – | no dead | 6.3 days | – | IC50 (ng/ml) NF54 ([2]; chloroquine-sensitive NF54 strain, 72 h incubation): 19 ng/mL (≈ 0.0561 µM); IC50 (ng/ml) K1 ([3]; chloroquine-resistant K1 strain, 72 h incubation): 7.7 ng/mL (≈ 0.0228 µM); Activity (%) 10 mg/kg po ([4]; 10 mg/kg): 15%; Survival (days) 10 mg/kg SSV po ([4]; 10 mg/kg): 7.0 days; Activity (%) 10 mg/kg SSV po ([4]; 10 mg/kg): 23%; Survival (days) 10 mg/kg sc ([4]; 10 mg/kg): 6.3 days; Activity (%) 10 mg/kg sc ([4]; 10 mg/kg): 20%
CS(=O)(=O)O.O=C(O)CNCC1CCC2(CC1)OOC1(O2)C2CC3CC(C2)CC1C3 (stereo not shown) [compound 309] | 9.4 days | 66% | 9.2 days | 99% | – | – | – | –
CS(=O)(=O)O.NC(=O)CCNCC1CCC2(CC1)OOC1(O2)C2CC3CC(C2)CC1C3 (stereo not shown) [compound 319] | 13 days | 92% | 11.2 days | 99.97% | – | – | – | –
Oc1ccc(C2CCC3(CC2)OOC2(O3)C3CC4CC(C3)CC2C4)cc1 (stereo not shown) [compound 288] | 8.4 days | 49% | 10.2 days | 99% | – | – | – | –
CCN(CC)CC[C@H]1CC[C@]2(CC1)OOC1(O2)C2CC3CC(C2)CC1C3 (stereo partly shown) [OZ126] | – | – | – | – | 9% | 7.0 days | 6.7 days | % reduction of adult worms growth at day 49 after per os application of 400 mg/kg, TWR (%) [1]: 0%; IC50 [2, 9]: 0.5 ng/mL (≈ 0.00138 µM); IC50 [3, 10]: 0.2 ng/mL (≈ 0.00055 µM); Activity (%) 10 mg/kg po [4]: 55%; Activity (%) 10 mg/kg SSV po [4]: 72%; Survival (days) 10 mg/kg sc [4]: 8.5 days; Activity (%) 10 mg/kg sc [4]: 99.44%
NC1(C(=O)NCC2CCC3(CC2)OOC2(O3)C3CC4CC(C3)CC2C4)CCCC1 (stereo not shown) [compound 317] | 11.4 days | 73% | 16.8 days | 100% | – | – | – | –
O=C(CC1CCC2(CC1)OOC1(O2)C2CC3CC(C2)CC1C3)N1CCC(O)CC1 (stereo not shown) [compound 297] | 6.4 days | 22% | 9.4 days | 89% | – | – | – | –
NS(=O)(=O)c1ccc(NCC2CCC3(CC2)OOC2(O3)C3CC4CC(C3)CC2C4)cc1 (stereo not shown) [compound 298] | 11 days | 93% | 16.4 days | 99.99% | – | – | – | –
O=C1CN(C(=O)CC2CCC3(CC2)OOC2(O3)C3CC4CC(C3)CC2C4)CCN1 (stereo not shown) [compound 296] | 7.8 days | 49% | 9.4 days | 94% | – | – | – | –
O=C(C[C@H]1CC[C@]2(CC1)OOC1(O2)C2CC3CC(C2)CC1C3)N1CCOCC1 (stereo partly shown) [OZ189] | – | – | – | – | 30% | 9.3 days | 9.0 days | % reduction of adult worms growth at day 49 after per os application of 400 mg/kg, TWR (%) [1]: 0%; IC50 [2, 7]: 3 ng/mL (≈ 0.00766 µM); IC50 [3, 8]: 1.7 ng/mL (≈ 0.00434 µM); Activity (%) 10 mg/kg po [4]: 95%; Activity (%) 10 mg/kg SSV po [4]: 99.79%; Survival (days) 10 mg/kg sc [4]: 10.7 days; Activity (%) 10 mg/kg sc [4]: 98%
NC1CCN(C(=O)C[C@H]2CC[C@]3(CC2)OO[C@]2(O3)C3CC4CC(C3)CC2C4)CC1 [OZ339] | – | – | – | – | – | – | 10.2 days | Cured infected mice at the 3×3 mg/kg dose (P. berghei ANKA strain; 3 mg/kg po (SSV) on days 1, 2, 3 post-infection): 3/5; Survival (days) 3 mg/kg SSV po ([4]; single 3 mg/kg po in SSV): 9.2 days
Cc1ccc(S(=O)(=O)O)cc1.NCCNC(=O)CC1CCC2(CC1)OOC1(O2)C2CC3CC(C2)CC1C3 (stereo not shown) [compound 305] | 9.6 days | 87% | 12.2 days | 99.91% | – | – | – | –

Source: patent US6825230B2, “Spiro and dispiro 1,2,4-trixolane antimalarials” (Medicines for Malaria Venture MMV, priority 2002, dated 2004)
